According to PubChem BioAssay (NCI):
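Compound exposure: 48 hours, 5 concentrations, 96-well plates. TGI denotes the concentration required for complete inhibition of growth.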

Tested on: SF-539 CNS
Test: NCI anticancer screen, dose series, 48 h

Compound	TGI
CC(=O)NC(CCCN)C(=O)NCc1ccccc1 (stereo not given)	> 100 µM
Cc1[nH]c(=O)[nH]c(=S)c1C(=O)NC(C)(CO)CO	> 100 µM
Cc1cc(O)c(/C=N/C(=S)NCCc2ccccc2)c(=O)o1	> 100 µM
COc1ccc(-c2c(C(C)=O)c(-c3ccccc3)n(C3OC(COC(C)=O)C(OC(C)=O)C(OC(C)=O)C3OC(C)=O)c(=S)c2C#N)cc1 (stereo not given)	> 100 µM
Cc1oc2nc(N(C)C)nc(Cl)c2c1C	> 100 µM
CCCCCCCCCCCCCCCCCc1cccc(OCOCCOC)c1CO	> 100 µM
CCOC(=O)Cn1sc2ncc([N+](=O)[O-])cc2c1=O	38.5 µM
O=C1CCC(c2ccccc2)C(O)(C(=O)O)C1 (stereo not given)	> 100 µM
N#CCCN(CCC#N)c1ccc(C(=O)NN)cc1	> 100 µM
NS(=O)(=O)c1nnc(NC(=O)c2ccccc2)s1	> 100 µM
CC1=CC(=O)NP(=O)(Oc2ccc(C)cc2)N1 (stereo not given)	> 100 µM
CC(=O)OCC1OC(N2C(c3ccccc3)=CC(c3ccccc3)C(C#N)=C2S)C(OC(C)=O)C(OC(C)=O)C1OC(C)=O (stereo not given)	16.2 µM
CC(=O)OC1CC2OC(Cc3ccccc32)O1 (stereo not given)	81.6 µM
C/C(=N\NC(=S)N1CC2CCC(CC2)C1)c1ccncn1	2.02 µM
COC(=O)CCC(=O)NC1c2cccc3cccc(c23)Cn2c(=O)n(C)c(=O)n21 (stereo not given)	> 100 µM
CCOC(=O)CC(NC(=O)c1nc[nH]c1[N+](=O)[O-])C(=O)OCC (stereo not given)	> 100 µM
N#[O+].O=S(=O)([O-])[O-].[NH2-].[NH2-].[NH2-].[NH2-].[NH2-].[Ru+5]	> 100 µM

Tested on: SNB-19 CNS
Test: NCI anticancer screen, dose series, 48 h

Compound	TGI
O=C1c2ccccc2S[C@@H](O)[C@@H]2CCCN12	> 100 µM
COc1ccc(OC)c2c1C(=O)C(Cl)=C(N1CCN(CCOCCO)CC1)C2=O	29.5 µM
COc1cccc(C2c3cc4c(cc3OC(N3CCCC3)C2C)OCO4)c1 (stereo not given)	61.4 µM
CN(C)/N=C(\CCN1CCCC1)CC(c1ccccc1)c1c(O)c2ccccc2oc1=O (stereo not given)	> 100 µM
O=P(c1ccccc1)(c1ccccc1)C(NCc1ccccc1)c1ccc(F)cc1 (stereo not given)	33.5 µM
C1=C2C3=[N+](CCCC3)CC2Cc2ccsc21 (stereo not given)	> 100 µM
CC(=O)NCc1nc(C#N)c(N)o1	> 100 µM
Clc1ccc2c(NCCCCN=Cc3ccccc3)ccnc2c1	45.7 µM
COc1cc2c(c(OC)c1OC)-c1ccc(SC)c(=O)cc1C(CC(=O)Oc1ccc([N+](=O)[O-])cc1)C2 (stereo not given)	> 31.8 µM
CC(=O)NC(CCCN)C(=O)NCc1ccccc1 (stereo not given)	> 100 µM
Cc1[nH]c(=O)[nH]c(=S)c1C(=O)NC(C)(CO)CO	> 100 µM
Cc1cc(O)c(/C=N/C(=S)NCCc2ccccc2)c(=O)o1	> 100 µM
Cc1ccccc1Nc1cn(COCc2ccccc2)c(=O)[nH]c1=O	> 100 µM
COc1ccc(-c2c(C(C)=O)c(-c3ccccc3)n(C3OC(COC(C)=O)C(OC(C)=O)C(OC(C)=O)C3OC(C)=O)c(=S)c2C#N)cc1 (stereo not given)	> 100 µM
Cc1oc2nc(N(C)C)nc(Cl)c2c1C	> 100 µM
Cn1c(=O)c2c(nc(NCCCCl)n2CC(=O)NCCCCl)n(C)c1=O	> 100 µM
CCCCCCCCCCCCCCCCCc1cccc(OCOCCOC)c1CO	> 100 µM
O=C1CCC(c2ccccc2)C(O)(C(=O)O)C1 (stereo not given)	> 100 µM
N#CCCN(CCC#N)c1ccc(C(=O)NN)cc1	> 100 µM
NS(=O)(=O)c1nnc(NC(=O)c2ccccc2)s1	> 100 µM
CC1=CC(=O)NP(=O)(Oc2ccc(C)cc2)N1 (stereo not given)	> 100 µM
CC(=O)OCC1OC(N2C(c3ccccc3)=CC(c3ccccc3)C(C#N)=C2S)C(OC(C)=O)C(OC(C)=O)C1OC(C)=O (stereo not given)	26.5 µM
CC(=O)OC1CC2OC(Cc3ccccc32)O1 (stereo not given)	> 100 µM
C/C(=N\NC(=S)N1CC2CCC(CC2)C1)c1ccncn1	15 µM
COC(=O)CCC(=O)NC1c2cccc3cccc(c23)Cn2c(=O)n(C)c(=O)n21 (stereo not given)	> 100 µM
CCOC(=O)CC(NC(=O)c1nc[nH]c1[N+](=O)[O-])C(=O)OCC (stereo not given)	> 100 µM

Tested on: SNB-75 CNS
Test: NCI anticancer screen, dose series, 48 h

Compound	TGI
Cc1cc(=O)[nH]c(NNC(C#N)c2ccc(O)cc2)n1 (stereo not given)	> 100 µM
COc1ccc(OC)c2c1C(=O)C(Cl)=C(N1CCN(CCOCCO)CC1)C2=O	29.3 µM
O=C(CSc1nnc(Cc2ccccc2)o1)Nc1cccc([N+](=O)[O-])c1	> 100 µM
COc1cccc(C2c3cc4c(cc3OC(N3CCCC3)C2C)OCO4)c1 (stereo not given)	81 µM
CN(C)/N=C(\CCN1CCCC1)CC(c1ccccc1)c1c(O)c2ccccc2oc1=O (stereo not given)	> 100 µM
O=P(c1ccccc1)(c1ccccc1)C(NCc1ccccc1)c1ccc(F)cc1 (stereo not given)	48.3 µM
C1=C2C3=[N+](CCCC3)CC2Cc2ccsc21 (stereo not given)	> 100 µM
CC(=O)NCc1nc(C#N)c(N)o1	> 100 µM
Clc1ccc2c(NCCCCN=Cc3ccccc3)ccnc2c1	24.1 µM
COc1cc2c(c(OC)c1OC)-c1ccc(SC)c(=O)cc1C(CC(=O)Oc1ccc([N+](=O)[O-])cc1)C2 (stereo not given)	0.68 µM
CC(=O)NC(CCCN)C(=O)NCc1ccccc1 (stereo not given)	> 100 µM
Cc1[nH]c(=O)[nH]c(=S)c1C(=O)NC(C)(CO)CO	> 100 µM
Cc1cc(O)c(/C=N/C(=S)NCCc2ccccc2)c(=O)o1	> 100 µM
COc1ccc(-c2c(C(C)=O)c(-c3ccccc3)n(C3OC(COC(C)=O)C(OC(C)=O)C(OC(C)=O)C3OC(C)=O)c(=S)c2C#N)cc1 (stereo not given)	> 100 µM
Cc1oc2nc(N(C)C)nc(Cl)c2c1C	> 100 µM
Cn1c(=O)c2c(nc(NCCCCl)n2CC(=O)NCCCCl)n(C)c1=O	> 100 µM
CCCCCCCCCCCCCCCCCc1cccc(OCOCCOC)c1CO	> 100 µM
CCOC(=O)Cn1sc2ncc([N+](=O)[O-])cc2c1=O	89.1 µM
O=C1CCC(c2ccccc2)C(O)(C(=O)O)C1 (stereo not given)	> 100 µM
N#CCCN(CCC#N)c1ccc(C(=O)NN)cc1	> 100 µM
CC1=CC(=O)NP(=O)(Oc2ccc(C)cc2)N1 (stereo not given)	> 100 µM
CC(=O)OCC1OC(N2C(c3ccccc3)=CC(c3ccccc3)C(C#N)=C2S)C(OC(C)=O)C(OC(C)=O)C1OC(C)=O (stereo not given)	54.2 µM
CC(=O)OC1CC2OC(Cc3ccccc32)O1 (stereo not given)	> 100 µM
C/C(=N\NC(=S)N1CC2CCC(CC2)C1)c1ccncn1	3.4 µM
COC(=O)CCC(=O)NC1c2cccc3cccc(c23)Cn2c(=O)n(C)c(=O)n21 (stereo not given)	> 100 µM
CCOC(=O)CC(NC(=O)c1nc[nH]c1[N+](=O)[O-])C(=O)OCC (stereo not given)	> 100 µM
N#[O+].O=S(=O)([O-])[O-].[NH2-].[NH2-].[NH2-].[NH2-].[NH2-].[Ru+5]	> 100 µM

Tested on: SR leukemia
Test: NCI anticancer screen, dose series, 48 h

Compound	TGI
O=C1c2ccccc2S[C@@H](O)[C@@H]2CCCN12	> 100 µM
Cc1cc(=O)[nH]c(NNC(C#N)c2ccc(O)cc2)n1 (stereo not given)	> 100 µM
COc1ccc(OC)c2c1C(=O)C(Cl)=C(N1CCN(CCOCCO)CC1)C2=O	29.3 µM
COc1cccc(C2c3cc4c(cc3OC(N3CCCC3)C2C)OCO4)c1 (stereo not given)	21.4 µM
O=P(c1ccccc1)(c1ccccc1)C(NCc1ccccc1)c1ccc(F)cc1 (stereo not given)	49.5 µM
COc1cc2c(c(OC)c1OC)-c1ccc(SC)c(=O)cc1C(CC(=O)Oc1ccc([N+](=O)[O-])cc1)C2 (stereo not given)	> 38 µM
COc1ccc(-c2c(C(C)=O)c(-c3ccccc3)n(C3OC(COC(C)=O)C(OC(C)=O)C(OC(C)=O)C3OC(C)=O)c(=S)c2C#N)cc1 (stereo not given)	> 100 µM
CCCCCCCCCCCCCCCCCc1cccc(OCOCCOC)c1CO	> 100 µM
O=C1CCC(c2ccccc2)C(O)(C(=O)O)C1 (stereo not given)	> 100 µM
NS(=O)(=O)c1nnc(NC(=O)c2ccccc2)s1	> 100 µM
CC1=CC(=O)NP(=O)(Oc2ccc(C)cc2)N1 (stereo not given)	> 100 µM
CC(=O)OCC1OC(N2C(c3ccccc3)=CC(c3ccccc3)C(C#N)=C2S)C(OC(C)=O)C(OC(C)=O)C1OC(C)=O (stereo not given)	> 100 µM
CC(=O)OC1CC2OC(Cc3ccccc32)O1 (stereo not given)	> 100 µM
COC(=O)CCC(=O)NC1c2cccc3cccc(c23)Cn2c(=O)n(C)c(=O)n21 (stereo not given)	> 100 µM
CCOC(=O)CC(NC(=O)c1nc[nH]c1[N+](=O)[O-])C(=O)OCC (stereo not given)	> 100 µM
N#[O+].O=S(=O)([O-])[O-].[NH2-].[NH2-].[NH2-].[NH2-].[NH2-].[Ru+5]	> 100 µM

Tested on: TK-10 renal
Test: NCI anticancer screen, dose series, 48 h

Compound	TGI
O=C1c2ccccc2S[C@@H](O)[C@@H]2CCCN12	> 100 µM
Cc1cc(=O)[nH]c(NNC(C#N)c2ccc(O)cc2)n1 (stereo not given)	> 100 µM
COc1ccc(OC)c2c1C(=O)C(Cl)=C(N1CCN(CCOCCO)CC1)C2=O	33.4 µM
O=C(CSc1nnc(Cc2ccccc2)o1)Nc1cccc([N+](=O)[O-])c1	> 100 µM
COc1cccc(C2c3cc4c(cc3OC(N3CCCC3)C2C)OCO4)c1 (stereo not given)	> 100 µM
CN(C)/N=C(\CCN1CCCC1)CC(c1ccccc1)c1c(O)c2ccccc2oc1=O (stereo not given)	> 100 µM
O=P(c1ccccc1)(c1ccccc1)C(NCc1ccccc1)c1ccc(F)cc1 (stereo not given)	32 µM
C1=C2C3=[N+](CCCC3)CC2Cc2ccsc21 (stereo not given)	> 100 µM
CC(=O)NCc1nc(C#N)c(N)o1	> 100 µM
Clc1ccc2c(NCCCCN=Cc3ccccc3)ccnc2c1	64 µM
COc1cc2c(c(OC)c1OC)-c1ccc(SC)c(=O)cc1C(CC(=O)Oc1ccc([N+](=O)[O-])cc1)C2 (stereo not given)	> 51.3 µM
CC(=O)NC(CCCN)C(=O)NCc1ccccc1 (stereo not given)	> 100 µM
Cc1[nH]c(=O)[nH]c(=S)c1C(=O)NC(C)(CO)CO	> 100 µM
Cc1cc(O)c(/C=N/C(=S)NCCc2ccccc2)c(=O)o1	> 100 µM
COc1ccc(-c2c(C(C)=O)c(-c3ccccc3)n(C3OC(COC(C)=O)C(OC(C)=O)C(OC(C)=O)C3OC(C)=O)c(=S)c2C#N)cc1 (stereo not given)	> 100 µM
Cc1oc2nc(N(C)C)nc(Cl)c2c1C	> 100 µM
Cn1c(=O)c2c(nc(NCCCCl)n2CC(=O)NCCCCl)n(C)c1=O	> 100 µM
CCCCCCCCCCCCCCCCCc1cccc(OCOCCOC)c1CO	> 100 µM
CCOC(=O)Cn1sc2ncc([N+](=O)[O-])cc2c1=O	32.8 µM
O=C1CCC(c2ccccc2)C(O)(C(=O)O)C1 (stereo not given)	> 100 µM
N#CCCN(CCC#N)c1ccc(C(=O)NN)cc1	> 100 µM
NS(=O)(=O)c1nnc(NC(=O)c2ccccc2)s1	> 100 µM
CC1=CC(=O)NP(=O)(Oc2ccc(C)cc2)N1 (stereo not given)	> 100 µM
CC(=O)OCC1OC(N2C(c3ccccc3)=CC(c3ccccc3)C(C#N)=C2S)C(OC(C)=O)C(OC(C)=O)C1OC(C)=O (stereo not given)	50.1 µM
CC(=O)OC1CC2OC(Cc3ccccc32)O1 (stereo not given)	> 100 µM
C/C(=N\NC(=S)N1CC2CCC(CC2)C1)c1ccncn1	2.56 µM
COC(=O)CCC(=O)NC1c2cccc3cccc(c23)Cn2c(=O)n(C)c(=O)n21 (stereo not given)	> 100 µM
CCOC(=O)CC(NC(=O)c1nc[nH]c1[N+](=O)[O-])C(=O)OCC (stereo not given)	94.1 µM
N#[O+].O=S(=O)([O-])[O-].[NH2-].[NH2-].[NH2-].[NH2-].[NH2-].[Ru+5]	> 100 µM
